PubChem BioAssay AID2060493 (Molecular Pharmacology Branch, DTP, NCI, 2025)

Test system: 616215-338-R-J1-PDC tumor spheroids, viability
Assay: Anticancer human tumor 616215-338-R-J1-PDC patient-derived colon adenocarcinoma cell line growth inhibition [GQUAD]
Details: spheroids with HUVEC and MSC; for IC50: curve of first compound; for viability, T/C: stronger effect = lower value; active means viability on the fitted dose curve at most 10% of control; inactive means the rest
In short: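 Multi-cell-type spheroids of tumor cells with HUVEC and mesenchymal stem cells, treated with drug combinations. Concentrations descend in half-log steps from near clinical Cmax, or from 10 microM where Cmax is unknown; viability read-out.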

[1] = second compound 0.0316 µM, first compound 0.0316 µM
[2] = second compound 0.0316 µM, first compound 0.1 µM
[3] = second compound 0.0316 µM, first compound 0.316 µM
[4] = second compound 0.0316 µM, first compound 1 µM
[5] = second compound 0.0316 µM, first compound 3.16 µM
[6] = second compound 0.0316 µM, first compound 10 µM
[7] = second compound 0.1 µM, first compound 0.0316 µM
[8] = second compound 0.1 µM, first compound 0.1 µM
[9] = second compound 0.1 µM, first compound 0.316 µM
[10] = second compound 0.1 µM, first compound 1 µM
[11] = second compound 0.1 µM, first compound 3.16 µM
[12] = second compound 0.1 µM, first compound 10 µM
[13] = second compound 0.316 µM, first compound 0.0316 µM
[14] = second compound 0.316 µM, first compound 0.1 µM
[15] = second compound 0.316 µM, first compound 0.316 µM
[16] = second compound 0.316 µM, first compound 1 µM
[17] = second compound 0.316 µM, first compound 3.16 µM
[18] = second compound 0.316 µM, first compound 10 µM
[19] = second compound 1 µM, first compound 0.0316 µM
[20] = second compound 1 µM, first compound 0.1 µM
[21] = second compound 1 µM, first compound 0.316 µM
[22] = second compound 1 µM, first compound 1 µM
[23] = second compound 1 µM, first compound 3.16 µM
[24] = second compound 1 µM, first compound 10 µM
[25] = second compound 3.16 µM, first compound 0.0316 µM
[26] = second compound 3.16 µM, first compound 0.1 µM
[27] = second compound 3.16 µM, first compound 0.316 µM
[28] = second compound 3.16 µM, first compound 1 µM
[29] = second compound 3.16 µM, first compound 3.16 µM
[30] = second compound 3.16 µM, first compound 10 µM
[31] = second compound 10 µM, first compound 0.0316 µM
[32] = second compound 10 µM, first compound 0.1 µM
[33] = second compound 10 µM, first compound 0.316 µM
[34] = second compound 10 µM, first compound 1 µM
[35] = second compound 10 µM, first compound 3.16 µM
[36] = second compound 10 µM, first compound 10 µM
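Further: spheroids exposed to agents for 7 days before readout.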
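Wherever viability, T/C is given: percent viability relative to DMSO vehicle control wells taken as 100%.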

Cc1cccc(N(C)C(=O)C2C(O)CCN2c2nc(C)cc(C(F)(F)F)c2C#N)c1 (centres undefined) + Cc1cnc(CNC(=O)c2c(=O)c3ccc(N4CCCN(C)CC4)nc3n3c2sc2ccccc23)cn1
> 10000 nM: IC50 (second compound 0.0316 µM)
< 31.6 nM: IC50 (second compound 0.1 µM) | IC50 (second compound 0.316 µM) | IC50 (second compound 1 µM) | IC50 (second compound 3.16 µM) | IC50 (second compound 10 µM)
inactive: viability, T/C [1] 106% | viability, T/C [2] 101% | viability, T/C [3] 109% | viability, T/C [4] 103% | viability, T/C [5] 95.8% | viability, T/C [6] 98.6% | viability, T/C [7] 37.9% | viability, T/C [8] 68.2% | viability, T/C [9] 56.2% | viability, T/C [10] 80.6% | viability, T/C [11] 81.8% | viability, T/C [12] 49% | viability, T/C [13] 50.5% | viability, T/C [14] 46.1% | viability, T/C [15] 50.2% | viability, T/C [16] 48.9% | viability, T/C [17] 57.9% | viability, T/C [18] 42% | viability, T/C [19] 32.6% | viability, T/C [20] 35.1% | viability, T/C [21] 39.1% | viability, T/C [22] 31.9% | viability, T/C [23] 38.3% | viability, T/C [24] 29.3% | viability, T/C [25] 31.7% | viability, T/C [26] 27.9% | viability, T/C [27] 33.5% | viability, T/C [28] 30.5% | viability, T/C [29] 29.1% | viability, T/C [30] 34.8% | viability, T/C [31] 30.5% | viability, T/C [32] 37% | viability, T/C [33] 31.1% | viability, T/C [34] 26.7% | viability, T/C [35] 32.2% | viability, T/C [36] 29.9%

CC1COCCN1c1cc(C2(O)CC3CCC(C2)O3)c2cnn(-c3ccn[nH]3)c2n1 (centres undefined) + Cc1cnc(CNC(=O)c2c(=O)c3ccc(N4CCCN(C)CC4)nc3n3c2sc2ccccc23)cn1
107 nM: IC50 (second compound 0.0316 µM)
< 31.6 nM: IC50 (second compound 0.1 µM) | IC50 (second compound 0.316 µM) | IC50 (second compound 1 µM) | IC50 (second compound 3.16 µM) | IC50 (second compound 10 µM)
inactive: viability, T/C [1] 76.3% | viability, T/C [2] 52.5% | viability, T/C [3] 29.4% | viability, T/C [4] 27.6% | viability, T/C [5] 25.2% | viability, T/C [6] 16.3% | viability, T/C [7] 38% | viability, T/C [8] 35.2% | viability, T/C [9] 33% | viability, T/C [10] 24.1% | viability, T/C [11] 20.8% | viability, T/C [12] 25.4% | viability, T/C [13] 43% | viability, T/C [14] 30.8% | viability, T/C [15] 23.8% | viability, T/C [16] 19.7% | viability, T/C [17] 18.9% | viability, T/C [18] 13.2% | viability, T/C [19] 29.5% | viability, T/C [20] 32.9% | viability, T/C [21] 22.2% | viability, T/C [22] 28.2% | viability, T/C [23] 22.3% | viability, T/C [24] 17.6% | viability, T/C [25] 42.9% | viability, T/C [26] 22% | viability, T/C [27] 18.1% | viability, T/C [28] 20.7% | viability, T/C [29] 15.8% | viability, T/C [30] 5.2% | viability, T/C [31] 24.5% | viability, T/C [32] 28.1% | viability, T/C [33] 29.5% | viability, T/C [34] 14.7%
active: viability, T/C [35] 11.2% | viability, T/C [36] 0.29%
